Measured values taken from patent publication US20110269219A1, “Method for increasing algae growth and the use thereof in production of algae-derived biofuels and other chemical” (GST Growth, LLC, priority 2010, published 2011).

System: Protococcus
Assay: Growth of Protococcus liquid cultures monitored at Absorbance 550 nm
Type: cell-based
Settings: Protococcus in water
Source text: Liquid cultures were established in the laboratory from the algae specimens collected to include three experimental treatments, which were: A control of Protococcus in water; • 1). Protococcus in water supplemented with 0.5% methanol, which is known to stimulate growth of PPFM bacteria; and • 2) Protococcus in water supplemented with a Vitamin B12 overproducing PPFM. The growth of the cultures was monitored at Absorbance 550 nm with the results below in Table 2 being obtained: […]

CO [Methanol, methanol] showed an A550 nm (After One Week) of 0.094, an A550 nm (After Two Weeks) of 0.085 and an A550 nm (Start) of 0.069.
